Test results published in the supplement of paper PMC8253809.

Columns and labels:
HGGX6 = H3.3 G34R paediatric high-grade glioma line; experiment: growth inhibition relative to DMSO (0) and positive control (1) (fraction); higher = more growth inhibition
Procedure: (§1)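 Paxalisib (GDC0084) x mirdametinib (PD0325901) dose matrix on pHGG cell lines and astrocyte controls, 7 days, adherent 384-well. CellTiter-Glo RLU was normalised (no log2) to fractional activity between DMSO (0) and the positive control (1). Each combination was tested in two plate orientations.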

iASTRO = astrocyte control; experiment: as above
Procedure: as §1

O=C(NOC[C@H](O)CO)c1ccc(F)c(F)c1Nc1ccc(I)cc1F + CC1(C)OCCn2c1nc1c(N3CCOCC3)nc(-c3cnc(N)nc3)nc12 [GDC0084]
growth inhibition
Settings | compound 1 concentration 0.009766 µM | compound 1 concentration 0.01953 µM | compound 1 concentration 0.03906 µM | compound 1 concentration 0.07812 µM | compound 1 concentration 0.15625 µM | compound 1 concentration 0.3125 µM | compound 1 concentration 0.625 µM | compound 1 concentration 1.25 µM | compound 1 concentration 5 µM | compound 1 concentration 20 µM
HGGX6, compound 2 concentration 0.03906 µM | -0.0587 | -0.133 | -0.0423 | -0.0209 | 0.0525 | 0.0544 | 0.136 | 0.172 | 0.433 | 0.608
HGGX6, compound 2 concentration 0.07812 µM | 0.159 | 0.159 | 0.235 | 0.123 | 0.215 | 0.239 | 0.175 | 0.334 | 0.493 | 0.707
HGGX6, compound 2 concentration 0.15625 µM | 0.0791 | 0.129 | 0.0602 | 0.134 | 0.0901 | 0.167 | 0.22 | 0.321 | 0.536 | 0.68
HGGX6, compound 2 concentration 0.3125 µM | 0.217 | 0.19 | 0.195 | 0.14 | 0.172 | 0.319 | 0.322 | 0.391 | 0.572 | 0.713
HGGX6, compound 2 concentration 0.625 µM | 0.371 | 0.37 | 0.329 | 0.373 | 0.258 | 0.373 | 0.432 | 0.457 | 0.633 | 0.748
HGGX6, compound 2 concentration 1.25 µM | 0.572 | 0.523 | 0.53 | 0.483 | 0.467 | 0.501 | 0.53 | 0.544 | 0.679 | 0.799
HGGX6, compound 2 concentration 5 µM | 0.709 | 0.727 | 0.714 | 0.72 | 0.705 | 0.725 | 0.719 | 0.747 | 0.798 | 0.86
HGGX6, compound 2 concentration 20 µM | 0.867 | 0.859 | 0.851 | 0.861 | 0.86 | 0.852 | 0.866 | 0.859 | 0.887 | 0.947
iASTRO, compound 2 concentration 0.03906 µM | 0.0351 | 0.072 | 0.0628 | 0.082 | 0.097 | 0.097 | 0.102 | 0.0401 | -0.0539 | -0.0303
iASTRO, compound 2 concentration 0.07812 µM | 0.0868 | 0.0655 | 0.0861 | 0.0688 | 0.093 | 0.134 | 0.15 | 0.0961 | 0.0858 | 0.0424
iASTRO, compound 2 concentration 0.15625 µM | 0.123 | 0.128 | 0.113 | 0.0769 | 0.0999 | 0.115 | 0.0997 | 0.104 | 0.0381 | 0.0629
iASTRO, compound 2 concentration 0.3125 µM | 0.0584 | 0.0952 | 0.0549 | 0.0979 | 0.0838 | 0.126 | 0.158 | 0.146 | 0.164 | 0.196
iASTRO, compound 2 concentration 0.625 µM | 0.0444 | 0.0912 | 0.0357 | 0.0123 | 0.112 | 0.148 | 0.303 | 0.443 | 0.516 | 0.588
iASTRO, compound 2 concentration 1.25 µM | 0.21 | 0.214 | 0.279 | 0.319 | 0.44 | 0.568 | 0.731 | 0.784 | 0.811 | 0.836
iASTRO, compound 2 concentration 5 µM | 0.756 | 0.777 | 0.798 | 0.811 | 0.83 | 0.858 | 0.875 | 0.887 | 0.901 | 0.887
iASTRO, compound 2 concentration 20 µM | 0.822 | 0.806 | 0.821 | 0.841 | 0.849 | 0.873 | 0.889 | 0.901 | 0.9 | 0.909

CC1(C)OCCn2c1nc1c(N3CCOCC3)nc(-c3cnc(N)nc3)nc12 [GDC0084] + O=C(NOC[C@H](O)CO)c1ccc(F)c(F)c1Nc1ccc(I)cc1F [PD0325901]
growth inhibition
Settings | compound 1 concentration 0.009766 µM | compound 1 concentration 0.01953 µM | compound 1 concentration 0.03906 µM | compound 1 concentration 0.07812 µM | compound 1 concentration 0.15625 µM | compound 1 concentration 0.3125 µM | compound 1 concentration 0.625 µM | compound 1 concentration 1.25 µM | compound 1 concentration 5 µM | compound 1 concentration 20 µM
HGGX6, compound 2 concentration 0.03906 µM | -0.0592 | -0.118 | -0.0557 | 0.0473 | 0.0152 | 0.16 | 0.251 | 0.451 | 0.708 | 0.857
HGGX6, compound 2 concentration 0.07812 µM | 0.064 | -0.018 | -0.00542 | 0.0583 | 0.162 | 0.132 | 0.254 | 0.475 | 0.717 | 0.883
HGGX6, compound 2 concentration 0.15625 µM | 0.0118 | 0.0255 | -0.000602 | 0.014 | 0.0815 | 0.2 | 0.302 | 0.466 | 0.711 | 0.857
HGGX6, compound 2 concentration 0.3125 µM | 0.0282 | 0.112 | 0.0905 | 0.102 | 0.124 | 0.205 | 0.31 | 0.505 | 0.707 | 0.865
HGGX6, compound 2 concentration 0.625 µM | 0.155 | 0.263 | 0.16 | 0.217 | 0.212 | 0.336 | 0.371 | 0.511 | 0.733 | 0.849
HGGX6, compound 2 concentration 1.25 µM | 0.226 | 0.235 | 0.284 | 0.245 | 0.295 | 0.368 | 0.424 | 0.564 | 0.776 | 0.841
HGGX6, compound 2 concentration 5 µM | 0.429 | 0.43 | 0.452 | 0.47 | 0.569 | 0.626 | 0.645 | 0.728 | 0.796 | 0.901
HGGX6, compound 2 concentration 20 µM | 0.595 | 0.612 | 0.628 | 0.661 | 0.667 | 0.729 | 0.762 | 0.814 | 0.871 | 0.94
iASTRO, compound 2 concentration 0.03906 µM | 0.09 | 0.0454 | 0.118 | 0.094 | 0.0396 | 0.0144 | -0.00856 | 0.184 | 0.758 | 0.807
iASTRO, compound 2 concentration 0.07812 µM | 0.121 | 0.0878 | 0.134 | 0.118 | 0.109 | 0.12 | 0.0894 | 0.264 | 0.802 | 0.813
iASTRO, compound 2 concentration 0.15625 µM | 0.0937 | 0.147 | 0.167 | 0.0963 | 0.0973 | 0.0664 | 0.0992 | 0.309 | 0.815 | 0.825
iASTRO, compound 2 concentration 0.3125 µM | 0.149 | 0.11 | 0.135 | 0.176 | 0.144 | 0.0844 | 0.154 | 0.446 | 0.833 | 0.846
iASTRO, compound 2 concentration 0.625 µM | 0.15 | 0.125 | 0.146 | 0.159 | 0.128 | 0.129 | 0.317 | 0.675 | 0.878 | 0.884
iASTRO, compound 2 concentration 1.25 µM | 0.155 | 0.123 | 0.103 | 0.0682 | 0.108 | 0.207 | 0.459 | 0.766 | 0.878 | 0.893
iASTRO, compound 2 concentration 5 µM | 0.108 | 0.0234 | 0.0231 | 0.0442 | 0.0662 | 0.219 | 0.546 | 0.791 | 0.875 | 0.891
iASTRO, compound 2 concentration 20 µM | 0.14 | 0.0807 | 0.0709 | 0.0677 | 0.0926 | 0.24 | 0.627 | 0.821 | 0.881 | 0.902
